Results from patent US20240251788A1, “HERBICIDE/SAFENER COMBINATION BASED ON SAFENERS FROM THE CLASS OF SUBSTITUTED [(1,5-DIPHENYL-1H-1,2,4-TRIAZOL-3-YL)OXY]ACETIC ACIDS AND THEIR SALTS” (Bayer Aktiengesellschaft, priority 2021, published 2024).

Assays:
[1] = tested on: summer barley crop plant (HORVS: cv. Quench); assay: Reduction in herbicide damage to summer barley by safener, greenhouse post-emergence application, visual scoring; type: in vivo
Experimental: (§1) The seeds of the crop plants to be treated are laid out in soil in woodfiber pots (diameter ˜ 7 cm), covered with soil and grown in a greenhouse under good conditions for germination and growth. The trial plants were treated at the early leaf stage (BBCH10-BBCH12).
The herbicides used (component B) were used in the following formulations: • B2.81: WP • B2.85: WP • B2.92: WP • Clomazone: WP • Ethofumesate: WP • Flufenacet: SC • Fluroxypyr: EC • Saflufenacil: WP • Thiencarbazone-methyl: WP • Iodosulfuron-methyl-sodium: WP • Bifenox: WP • Glyphosate potassium salt: SL • Topramezone: WP
(§2) The dose of the respective herbicides was chosen here such that it causes an average degree of visually apparent damage (min. 20%, max. 75%) compared to untreated crop plants at the evaluation time on a control group of crop plants without safener treatment that were included in the same trial.
(§3) In the respective herbicide/safener combinations, the safeners (component A) in the form of wettable powders (WP) were added in the dose specified; in these cases, herbicide and safener are thus applied as a mixture.
(§4) Application was effected in each case on to the above-ground parts of the plant, at a water application rate corresponding to 300 l/ha and with addition of wetting agent (Mero, 1.5 l/h a).
In the applications that contained pinoxaden or topramezone, the herbicidal effect was enhanced by additionally adding ammonium sulfate (2 kg/ha).
(§5) After application, the plants were cultivated under good growth conditions in a greenhouse. On account of the different mechanisms of action of the herbicides used, the damaging effect of the herbicides was fully manifested at different times depending on the herbicide, and this in turn forms the basis for assessment of the safener action in the mixtures. Therefore, the damage was scored visually, depending on the herbicide/mixture, between 11 and 21 days after application.
(§6) The damage effect was assessed visually on a scale of 0-100% by comparison with untreated control plants, and averaged over 2 repeats per treatment.

[2] = tested on: summer wheat crop plant (TRZAS; cv. Triso); assay: Reduction in herbicide damage to summer wheat by safener, greenhouse post-emergence application, visual scoring; type: in vivo
Experimental: as §1
The herbicides used (component B) were used in the following formulations: • B2.81: WP • B2.85: WP • B2.92: WP • Cinmethylin: EC • Clomazone: WP • Ethofumesate: WP • Flufenacet: SC • Pinoxaden: WP • Saflufenacil: WP • Bicyclopyrone: WP • Picloram: WP • Metazachlor: SC • Flumioxazin: WP • Glyphosate potassium salt: SL • Topramezone: WP
as §2, §3, §4
In the applications that contained pinoxaden, bicyclopyrone or topramezone, the herbicidal effect was enhanced by additionally adding ammonium sulfate (2 kg/ha).
as §5, §6

[3] = summer wheat (TRZAS), herbicide dose 20 g a.i./ha, without safener
[4] = summer wheat (TRZAS), herbicide dose 400 g a.i./ha, without safener

Question: How did the “Damage to the plant by the herbicide (in %)” value (from here on “Damage to the plant … (in %)”) ([1]; summer barley (HORVS), herbicide dose 2000 g a.i./ha, without safener) turn out when `CCOC1Oc2ccc(OS(C)(=O)=O)cc2C1(C)C` (stereo not drawn) [Compound B5.21, ethofumesate, reference compound] was run?
Answer: 60%

Question: And the “Damage to the plant … (in %)” value ([2]; summer wheat (TRZAS), herbicide dose 2000 g a.i./ha, without safener)?
Answer: 70%

Question: How did the “Damage to the plant … (in %)” value ([1]; summer barley (HORVS), herbicide dose 20 g a.i./ha, without safener) turn out when `CC(C)N(C)S(=O)(=O)NC(=O)c1cc(-n2c(=O)cc(C(F)(F)F)n(C)c2=O)c(F)cc1Cl` [Compound B9.10, saflufenacil, reference compound] was run?
Answer: 40%

Question: And the “Damage to the plant … (in %)” value ([2]; summer wheat (TRZAS), herbicide dose 10 g a.i./ha, without safener)?
Answer: 35%

Question: What about the “Damage to the plant … (in %)” value [2, 3] of the same compound?
Answer: 40%

Question: `O=C(O)CNCP(=O)(O)O` [Compound B7.5, glyphosate, reference compound] was tested. Which “Damage to the plant … (in %)” value ([1]; summer barley (HORVS), herbicide dose 400 g a.i./ha, without safener) did it give?
Answer: 60%

Question: And the “Damage to the plant … (in %)” value [2, 4]?
Answer: 45%

Question: Which “Damage to the plant … (in %)” value ([1]; in vivo) does the source give for `C=C[C@]1(C(=O)N[C@H]2C=C[C@@H](C(=O)OC)C2)CC(c2cc(F)cc(F)c2)=NO1` [Compound B2.85, methyl (1S,4R)-4-[[[(5S)-3-(3,5-difluorophenyl)-5-vinyl-4H-1,2-oxazol-5-yl]carbonyl]amino]cyclopent-2-ene-1-carboxylate] here?
Answer: 60%

Question: What about the “Damage to the plant … (in %)” value ([2]; in vivo) of the same compound?
Answer: 60%

Question: How did the “Damage to the plant … (in %)” value ([1]; in vivo) turn out when `COc1nc(C)nc(NC(=O)NS(=O)(=O)c2cc(I)ccc2C(=O)O)n1` [Compound B2.34, iodosulfuron, reference compound] was run?
Answer: 45%

Question: `C[C@]1(C(=O)N[C@H]2C=C[C@@H](C(=O)O)C2)CC(c2cc(F)cc(F)c2)=NO1` [Compound B2.92, (1S,4R)-4-[[(5R)-3-(3,5-difluorophenyl)-5-methyl-4H-isoxazole-5-carbonyl]amino]cyclopent-2-ene-1-carboxylic acid] was tested. Which “Damage to the plant … (in %)” value ([1]; in vivo) did it give?
Answer: 65%

Question: What about the “Damage to the plant … (in %)” value ([2]; in vivo) of the same compound?
Answer: 60%

Question: How did the “Damage to the plant … (in %)” value ([1]; summer barley (HORVS), herbicide dose 300 g a.i./ha, without safener) turn out when “topramezone [Compound B4.28, reference compound]” was run?
Answer: 50%

Question: And the “Damage to the plant … (in %)” value ([2]; summer wheat (TRZAS), herbicide dose 300 g a.i./ha, without safener)?
Answer: 40%

Question: `Nc1c(Cl)c(Cl)nc(C(=O)O)c1Cl` [Compound B6.5, picloram, reference compound] was tested. Which “Damage to the plant … (in %)” value [2, 4] did it give?
Answer: 25%

Question: With `Cc1cccc(C)c1N(Cn1cccn1)C(=O)CCl` [Compound B2.38, metazachlor, reference compound] as the compound, how does the “Damage to the plant … (in %)” value ([2]; summer wheat (TRZAS), herbicide dose 4000 g a.i./ha, without safener) read?
Answer: 40%

Question: Which “Damage to the plant … (in %)” value ([2]; summer wheat (TRZAS), herbicide dose 200 g a.i./ha, without safener) does the source give for `CCc1cc(C)cc(CC)c1-c1c(OC(=O)C(C)(C)C)n2n(c1=O)CCOCC2` [Compound B1.8, pinoxaden, reference compound] here?
Answer: 35%

Question: For `COC(=O)c1cc(Oc2ccc(Cl)cc2Cl)ccc1[N+](=O)[O-]` [Compound B8.6, bifenox, reference compound], which “Damage to the plant … (in %)” value ([1]; summer barley (HORVS), herbicide dose 600 g a.i./ha, without safener) is on record?
Answer: 40%

Question: With `Nc1c(Cl)c(F)nc(OCC(=O)O)c1Cl` [Compound B6.4, fluroxypyr, reference compound] as the compound, how does the “Damage to the plant … (in %)” value ([1]; in vivo) read?
Answer: 20%

Question: `C#CCN1C(=O)COc2cc(F)c(N3C(=O)C4=C(CCCC4)C3=O)cc21` [Compound B5.26, flumioxazin, reference compound] was tested. Which “Damage to the plant … (in %)” value [2, 3] did it give?
Answer: 60%

Question: `Cc1ccccc1CO[C@@H]1C[C@@]2(C(C)C)CC[C@]1(C)O2` (racemic) [Compound B5.13, cinmethylin, reference compound] was tested. Which “Damage to the plant … (in %)” value ([2]; summer wheat (TRZAS), herbicide dose 500 g a.i./ha, without safener) did it give?
Answer: 25%

Question: What about the “Damage to the plant … (in %)” value ([2]; summer wheat (TRZAS), herbicide dose 1000 g a.i./ha, without safener) of the same compound?
Answer: 25%

Question: How did the “Damage to the plant … (in %)” value ([1]; summer barley (HORVS), herbicide dose 30 g a.i./ha, without safener) turn out when `COc1nn(C(=O)NS(=O)(=O)c2c(C(=O)O)csc2C)c(=O)n1C` [Compound B2.68, thiencarbazone, reference compound] was run?
Answer: 30%

Question: Which “Damage to the plant … (in %)” value [2, 4] does the source give for “bicyclopyrone [Compound B1.2, reference compound]” here?
Answer: 60%
